For this assay, the system named is T1, KERUS.
T1 construct: native extracellular enzyme purified from culture supernatant; mature form 275 aa of a 383-aa pre-pro-enzyme (pre 29 aa, pro 79 aa removed)
As to the kind of experiment: esterase activity, absorbance at […] nm, Lineweaver-Burk. Format: biochemical, Brevibacillus brevis. The following applies: pH 8, 40°C, 10% (v/v) DMSO, 1% (v/v) Triton X-100.

SMILES strings stand for the structures.

By Km is commonly meant the substrate concentration at which the rate is half of its maximum. With `CCOC(=O)[C@H](CCCN=C(N)N)NC(=O)c1ccccc1` [BAEE], the Km is 655 ± 33 µM.

The record behind these values is paper PMC3795758, “Biochemical and Molecular Characterization of a Serine Keratinase from Brevibacillus brevis US575 with Promising Keratin-Biodegradation and Hide-Dehairing Activities” (PLoS ONE, 2013).
